The source of these data is US8318804B2 (priority 2007, dated 2012).

The test system of one assay is influenza virus. The class given is cell-based, influenza virus in MDCK cells.
The next assay deals with A/WY/03/2003. It is filed as cell-based, influenza A virus in MDCK cells.
Assay [1] deals with A/WY/03/2003 (H3N2) influenza virus. It is filed as cell-based, influenza A virus in MDCK cells.
Assay [2] deals with influenza virus strain A/Wyoming/03/2003 (H3N2). The class given is cell-based, influenza A virus in MDCK cells.

Values after ≈ are worked out from the molar mass of the structure shown.

Regarding `CCOC(=O)C([C@H]1C=C[C@@H](O)C1)[N+](=O)[O-]` (stereo partly drawn) [EHCN, ethyl-(2R/S, 1′R,4′S)-2-(4′-hydroxy-2′-cyclopenten-1′-yl)-2-nitroacetate], in the assay on influenza virus, the “plaque formation / antiviral activity in plaque reduction assay” value is “fewer and smaller plaques than the untreated wells”. Moreover, the “EC50 against A/WY/03/2003” value with A/WY/03/2003 came out at 4.5 mg/L (≈ 20.9 µM). The “protection (cell viability assay)” value in assay [1] is on record as 75%. The “cytopathic effect (CPE) observed under the microscope” value in assay [2] is “did not present complete CPE”.
